Source: US8410287B2 (McNeil-PPC, Inc., priority 2010, dated 2013)
Blank lines part the entries; values can stand above or below the compound they belong to.

Key:
[1] = stability toward air: neutralization of the salt by CO2 and water to neutral Cel (Cel-III); format: physicochemical
Excerpt: The behavior was first observed when using compressed air instead of nitrogen in the dynamic vapor sorption experiment, but it was also clear in samples stored open in controlled humidity chambers. The neutralization was minimized to get clean PXRD patterns by including small vials of concentrated NaOH solution within the closed humidity chambers to remove CO2 from the air. […] Throughout the conversion, both Cel-III and the sodium salt are clearly observed by PXRD with Cel-III growing slowly over time.

[2] = storage in controlled humidity chambers monitored by PXRD (physical form stability); format: physicochemical
Excerpt: Indeed, understanding the behavior of the salt form before the single crystal structure was solved was challenging in that the powder patterns seemed to change almost daily, even when powders were equilibrated in humidity chambers prior to measurement. […] Consistent powder patterns were obtained by two distinct methods. In the first method, powder was filled into 0.5 mm capillary tubes, equilibrated in controlled humidity chambers for 1 week, sealed with silicone grease immediately upon removal from the humidity chambers, and measured immediately with a transmission powder X-ray diffractometer. In the second, a sample was monitored by a reflectance mode powder X-ray diffractometer fitted with a controlled humidity stage. The two methods were complimentary. The capillary method provided high resolution patterns without preferred orientation effects. However, the humidity control was coarse and was limited to conditions that could be achieved with standard saturated salt solutions.
The rate of conversion to Cel-NaPG(H2O)3 is very slow at 18% RH and increases to the point where conversion takes less than one day at 54% RH or higher.

[3] = Dynamic Vapor Sorption (DVS) moisture sorption analysis; format: physicochemical
Procedure: Moisture sorption analysis was performed using a Dynamic Vapor Sorption apparatus (Surface Measurement Systems, Monarch Beach, Calif.). Each sample was placed in a clean glass crucible and equilibrated in the apparatus at a specified RH level. Varying the flow rates of dry nitrogen gas and saturated wet nitrogen gas streams controlled RH; the total combined flow rate was kept constant at 200 standard […] per minute. After initial equilibration, RH was varied and change in mass was recorded over time as an indication of moisture sorption. Mass equilibration at each humidity level was determined as a change in mass less than ±2×10^−5 grams over a time interval of 1 minute (dm/dt of 0.002% min). After the assay, the change in mass was mathematically converted to water molar equivalents per dry compound molar equivalent.
The dynamic vapor sorption profiles were measured starting with Cel-NaPG at 0% RH, and for Cel-NaPG(H2O)3 beginning at 20% RH to avoid dehydrating it prior to the first absorption cycle. The profiles are shown in FIG. 12 alongside PXRD patterns for samples of Cel-NaPG stored in controlled humidity chambers for 1-2 days.

[4] = 1H NMR determination of Cel:PG ratio after exposure to 0% RH and 40% RH in the DVS; format: physicochemical
Procedure: ^1H NMR measurements were conducted using a Varian 400 MHz spectrometer with averaging of 128 scans. Samples were prepared as 10 mg/ml solutions of Cel in CDCl3.
Increased lability and loss of PG during the transition from anhydrous to trihydrate was believed to be the most likely explanation for the weight loss. ^1H NMR was used to determine whether the PG solvate is lost continuously throughout the humidity cycle or only during change in the hydration state. Cel-NaPG and Cel-NaPG(H2O)3 were exposed to 0% RH and 40% RH in the DVS and then dissolved in methanol-d4 for NMR analysis. The Cel:PG ratio was stable at 1/1 for Cel-NaPG(H2O)3 after treatment for either four hours at 40% RH or 18 hours at 0% RH. […] Since the Cel-NaPG(H2O)3 has a wide range of physical stability, conversion from the trihydrate to the anhydrous and then back to the trihydrate should be a rare event. In a closed system such as a packaged tablet, PG should not be lost as easily as it is in the dynamic environment of the DVS where gases continuously flow over the sample to carry away any volatile components.

[5] = TGA; format: physicochemical
[6] = cited from earlier work
[7] = physchem; settings: aqueous sodium hydroxide solution, pH 12, aqueous buffer

physical stability in a sealed vial ([1]; sealed vial): physically stable
SMILES: Cc1ccc(-c2cc(C(F)(F)F)nn2-c2ccc(S(N)(=O)=O)cc2)cc1 [Cel-Na(H2O)x]

conversion to Cel-NaPG (dehydration) ([2]; 4 days of storage over the 18% RH salt bath): no conversion to Cel-NaPG | conversion to neutral Cel ([1]; after 4 days at 45 66% RH): no conversion was observed | reversible weight gain ([3]; between 10 and 70% RH at 25° C.): 1.2 % weight | loss of dry weight after a single humidity cycle ([3]; started at 20% RH, single humidity cycle): no loss was seen
SMILES: CC(O)CO.Cc1ccc(-c2cc(C(F)(F)F)nn2-c2ccc(S([NH-])(=O)=O)cc2)cc1.O.O.O.[Na+] [Cel-NaPG(H2O)3, propylene glycol solvate of celecoxib sodium trihydrate]
reaction with CO2 and water in the air [1]: resistant to reaction with CO2 and water in the air

time for conversion to Cel-NaPG(H2O)3 ([2]; 54% RH or higher): less than one | PG lost ([4]; over four hours at 40% RH): 8.2% | stability of PG content ([4]; stream of dry nitrogen for 18 hours (0% RH)): remaining stable | temperature until which PG is retained (TGA) ([5]; under a flow of nitrogen): approximately 80 °C | water gained (TGA) ([5]; within 1 day, stored in a 38% RH chamber): about 2 equiv | additional weight loss after going through the entire DVS profile ([3]; 25° C., after desorption): 2 % weight | weight gain during adsorption ([3]; DVS profile started at 0% RH, 25° C.): ~14 % weight
SMILES: CC(O)CO.Cc1ccc(-c2cc(C(F)(F)F)nn2-c2ccc(S([NH-])(=O)=O)cc2)cc1.[Na+] [Cel-NaPG]

solubility [7]: ≥ 380 mg/mL
SMILES: Cc1ccc(-c2cc(C(F)(F)F)nn2-c2ccc(S(N)(=O)=O)cc2)cc1 [celecoxib]
aqueous solubility of celecoxib at physiological pH [6]: < 0.5 μg/ml
